Laboratory results reported in ChEMBL document CHEMBL1157539, “Thousands of chemical starting points for antimalarial lead identification” (Nature, 2010).

Each compound was assayed on Plasmodium falciparum (assay: GSK_TCMDC: Inhibition of Plasmodium falciparum 3D7 in whole erythrocytes, using parasite LDH activity as an index of growth.). Conditions: Plasmodium falciparum, 3D7.
Format: functional, organism-based

SMILES | XC50
NC(=O)Nc1ccc2cn[nH]c2c1 | 0.205 µM
O=C(/C=C/c1ccccc1O)NCCCCCN1CCC(c2c[nH]c3ccccc23)CC1 | 0.827 µM
O=C(Nc1ccc(-c2ccc(-c3nc4ccccc4[nH]3)s2)cc1)c1ccncc1 | 0.789 µM
COc1ccc2nc(C)cc(N/N=C/C=C/c3ccccc3)c2c1 | 0.701 µM
Clc1cc2c(Nc3ccc(Oc4ccccc4)cc3)ccnc2cc1-c1ccc(CNCCN2CCOCC2)o1 | 0.707 µM
COc1ccc2nc3cc(Cl)ccc3c(NCCCCN)c2c1 | 0.732 µM
Fc1ccc2[nH]c(-c3ccc(-c4cccc(CN5CCC(CCN6CCCCC6)CC5)c4)cc3)nc2c1 | 0.136 µM
COC(=O)c1c(NC(=O)c2cccc(C(F)(F)F)c2)sc2c1CCN(Cc1ccccc1)C2 | 1.34 µM
COc1ccc(CCn2c(=N)c(C(=O)NCc3cccnc3)cc3c(=O)n4cccc(C)c4nc32)cc1 | 1.4 µM
CN1CCC(N2CCN(Cc3ccc(-c4cccc(-c5nc6ccccc6[nH]5)c4)cc3)CC2)CC1 | 0.145 µM
N=C1c2ccccc2CN1CC(=O)c1ccc(Cl)c(Cl)c1 | 0.728 µM
Cc1ccc2nc(C)cc(N/N=C/c3ccccc3[N+](=O)[O-])c2c1 | 0.166 µM
Cc1ccccc1C1CCN(C2CCC(NC(=O)/C=C/c3cccc(F)c3)CC2)CC1 (stereo not drawn) | 1.19 µM
COc1ccccc1-c1csc(C(=O)NC2CCCCN(Cc3ccc(C(C)(C)C)cc3)C2)c1 (stereo not drawn) | 1.53 µM
Nc1nc(N)c2c3c(ccc2n1)NCCC3 | 0.734 µM
CCNc1cc(C(=O)N[C@@H](Cc2ccccc2)[C@H](O)CNC2(C)CCCCC2)cc(N2CCCCS2(=O)=O)c1 | 0.156 µM
CCSc1nnc(C2CCCN(CC(=O)Nc3cc(C(F)(F)F)ccc3Cl)C2)n1CC (stereo not drawn) | 0.232 µM
N=c1n(Cc2ccccc2)c2ccccc2n1CC(O)c1ccc(Cl)cc1 (stereo not drawn) | 0.879 µM
O=C(Cc1cccc(OCCCN(Cc2cccc(C(F)(F)F)c2Cl)CC(c2ccccc2)c2ccccc2)c1)NCc1ccco1 | 0.937 µM
O=c1cc(NCCCNCc2cccc3c2OC(F)(F)O3)[nH]c2ccccc12 | 0.947 µM
COc1ccc(CNCc2ccc(-c3cccc(-c4nc5cc(F)ccc5[nH]4)c3)cc2)cc1 | 0.202 µM
CNCc1ccc(-c2ccc3ccnc(N)c3c2)cc1 | 0.262 µM
Cc1noc(C)c1-c1ccc2c(Nc3cccc4c3-c3ccccc3C4=O)c(C(=O)NCc3ccccc3I)cnc2c1 | 0.627 µM
Cc1n[nH]c2ccc(-c3ccc4nccc(N5CCC(N)CC5)c4c3)cc12 | 0.591 µM
CC1(C)CC(NCCCCCCCOc2ccc(OCc3ccccc3)cc2)CC(C)(C)N1 | 0.827 µM

SMILES | XC50
COc1ccc2cc(C(c3nnnn3CC3CCCO3)N3CCc4ccccc43)c(=O)[nH]c2c1 (stereo not drawn) | 0.795 µM
CO/C(=C\C=C\c1cc2cc(Cl)c(Cl)cc2[nH]1)C(=O)NCCCN1CCN(c2ccncc2)CC1 | 0.733 µM
CCCCCN1CCC(NC(=O)c2ccc(C(=O)Nc3ccc(C(C)C)cc3)cc2)C1 (stereo not drawn) | 0.954 µM
CNCCNCc1ccc(-c2ccc(-c3nc4cccc(C)c4[nH]3)s2)cc1 | 0.732 µM
CC(NC(C)(C)C)C(O)c1ccc(Cl)c(C(F)(F)F)c1 (stereo not drawn) | 0.742 µM
O=S(=O)(Nc1cccc(CCN2CCCCC2CCN2CCCC2)c1)c1ccc2ccccc2c1 (stereo not drawn) | 1.07 µM
O=c1c2ccccc2[nH]c2cc(Cl)ccc12 | 0.873 µM
OCC1CCN(Cc2ccc(-c3cccc(-c4nc5cc(C(F)(F)F)ccc5[nH]4)c3)cc2)CC1 | 0.483 µM
Cc1cnccc1/C=C/c1cccc(OCCCN2CCc3ccc(S(C)(=O)=O)cc3CC2)c1 | 0.615 µM
COc1ccc2c(c1)CC(NCc1ccc(-c3ccc4nc[nH]c4c3)cc1)C2 (stereo not drawn) | 0.88 µM
c1ccc(COc2ccc(Nc3ncnc4ccc(-c5ccc(CN6CCSCC6)o5)cc34)cc2)cc1 | 0.827 µM
O=C(C=Cc1ccc(Cl)c(Cl)c1)NCCCCCN1CCCC(CCCNC(=O)c2sc3ccccc3c2Cl)C1 (stereo not drawn) | 1.03 µM
COc1ccc(Cc2cccc(C(C(=O)NCc3cc(Cl)cc(Cl)c3)N3CCN(C)CC3)c2)cc1 (stereo not drawn) | 0.694 µM
Cc1ccc(/C=C/C(=O)N2CCC(CCN3CCC(c4c[nH]c5ccccc45)CC3)CC2)cc1C | 0.926 µM
COc1ccc(-c2cnc(N)c(-c3ccc(C(N)=O)cc3)c2)cc1OC | 0.897 µM
CS(=O)(=O)NCCCNCc1cccc(-c2csc(-c3nc4ccccc4[nH]3)c2)c1 | 1.01 µM
Cc1ccccc1C1CCN(C2CCC(NC(=O)/C=C/c3ccc4c(c3)OC(F)(F)O4)CC2)CC1 (stereo not drawn) | 0.666 µM
O=C(Nc1ccccc1O)c1ccc(Oc2cccc(C(=O)Nc3ccccc3O)c2)cc1 | 0.799 µM
CC(=O)Nc1ccc2[nH]cc(C3CCN(CC4CCN(C(=O)/C=C/c5ccc(Cl)c(Cl)c5)CC4)CC3)c2c1 | 0.723 µM
FC(F)(F)c1ccccc1OCc1cc(-c2ccncc2)c(COc2ccccc2C(F)(F)F)cc1C1=CCNCC1 | 0.89 µM
NC(=O)c1ccccc1Nc1nc(Nc2ccc(N3CCOCC3)cc2)ncc1[N+](=O)[O-] | 0.881 µM
CC(C)CNCc1cccc(-c2ccccc2CNC2CCN(Cc3ccccc3)CC2)c1 | 0.579 µM
CCCNC(=O)Nc1ccc(N(C)c2ccnc(NC3CC3)n2)cc1 | 0.618 µM
Cc1ccc2c(c1)nc(N)n2C[C@H](O)c1ccccc1 | 0.582 µM
CC1(CCCCN2CC=C(c3c[nH]c4ccccc34)CC2)C(=O)Nc2ccccc21 (stereo not drawn) | 0.138 µM

SMILES | XC50
O=C(Nc1cccc(CN2CCN(C(=O)c3cccc(F)c3)CC2)c1)c1ccco1 | 0.775 µM
Nc1[nH]c2ccccc2c(=O)c1-c1nc2ccccc2s1 | 0.303 µM
COc1ccc(NC(=O)[C@H](Cc2ccccc2)Nc2cc(C)nc(NCc3ccccc3C)n2)cc1 | 0.794 µM
COc1cccc(C23NC(=Nc4nc5ccccc5[nH]4)NC2(c2cccc(OC)c2)NC(=Nc2nc4ccccc4[nH]2)N3)c1 (stereo not drawn) | 0.157 µM
N#Cc1ccc(-c2ccc(OCC(O)CN3CCCN(C(=O)C(c4ccc5c(c4)OCO5)N4CCN(C/C=C/c5ccccc5)CC4)CC3)cc2)cc1 (stereo not drawn) | 0.654 µM
Cc1cc2ccc(/C=C/C(=O)NC3CCC(CCN4CCc5ccc(C#N)cc5CC4)CC3)cc2[nH]1 (stereo not drawn) | 0.941 µM
CC(C)CCNC(=O)C1Cc2c([nH]c3cc(Br)ccc23)C2(CCN(CCc3ccccc3)CC2)N1 (stereo not drawn) | 0.91 µM
O=C(/C=C/c1ccc(Cl)c(Cl)c1)NC1CCC(CN2CCC(c3nc4cccnc4[nH]3)CC2)CC1 (stereo not drawn) | 1.23 µM
O=C(Nc1ccc(OC2CCN(Cc3ccccc3)CC2)c(Cl)c1)c1ccsc1 | 0.9 µM
Cc1cccc(-c2nn(-c3ccccc3)cc2C(=O)Nc2nnc(C)o2)c1 | 1.16 µM
C=Cc1sc(CNCCCNc2cc(=O)c3ccccc3[nH]2)c(C)c1Br | 1.05 µM
O=C(c1ccccc1)N(Cc1ccccc1-c1ccc(CNCCc2ccccc2)cc1)C1CCN(Cc2ccccc2)CC1 | 0.995 µM
CCn1c2c(c(=N)c3ccccc31)CCC2 | 0.505 µM
CS(=O)(=O)NCCCNCc1cccc(-c2ccc(-c3nc4ccccc4[nH]3)s2)c1 | 1.08 µM
FC(F)(F)c1cccc(Nc2nc(-n3ccnc3)nc(-n3ccnc3)n2)c1 | 0.724 µM
Cc1c2ccncc2c(C)c2c1[nH]c1ccccc12 [ELLIPTECINE] | 0.796 µM
CC(C)C(C(=O)n1ncc2c3c(N)nc(N)nc3ccc21)C(C)C | 0.648 µM
CC[C@H](C)CNC(=O)c1cncc(-c2ccc(CN3CCC(N4CCCC4)CC3)cc2)c1 | 0.968 µM
COc1ccc(CN2CCC(NCc3ccc(C(F)(F)F)cc3)CC2)cc1 | 0.916 µM
CCCCNCc1ccc(-c2nc(CN(CCCn3ccnc3)C(=O)NC3CC3c3ccccc3)cs2)cc1 (stereo not drawn) | 0.744 µM
COc1cc(OC)c(OC)cc1CN1CCC2(CC1)CN(Cc1ccc(Cl)c(Cl)c1)C(=O)O2 | 0.815 µM
O=C(Nc1ccc2c(c1)OCO2)NC1CCN(c2ccnc(NCc3ccc(F)cc3)n2)CC1 | 0.943 µM
N#Cc1c(N)n(CCc2ccc(F)cc2)c2nc3ccccc3nc12 | 0.973 µM
CCN(CC)c1ccc(C(=O)Cn2ccc(=N)cc2)cc1 | 0.998 µM
COc1ccc(CNCc2ccc(F)cc2)cc1-c1ccc(S(=O)(=O)NCCN2CCCC2)c(C)c1 | 0.734 µM

SMILES | XC50
COc1ccc(NC(=O)NC2CCN(CCCOc3ccnc4cc(Cl)ccc34)C2)cc1OC (stereo not drawn) | 0.792 µM
C=CCN1Cc2c(O)cccc2C(c2ccc(O)c(O)c2)C1 (stereo not drawn) | 0.67 µM
O=C(NC1CCC(CCN2Cc3cccc(F)c3C2)CC1)c1cccc(-c2cccnc2)c1 (stereo not drawn) | 0.3 µM
N#Cc1cccc(COC(=O)C2=C(COc3ccccc3Cl)NC(=O)NC2c2c[nH]c3cnccc23)c1 (stereo not drawn) | 0.792 µM
COc1ccc(CCNC(=O)c2ccccc2O)cc1-c1ccc(C(C)(C)C)cc1 | 0.563 µM
COc1ccc(C(=O)N2CCC3(CC2)C(=O)N(CC(=O)NCC2CCCCC2)CN3c2ccccc2)cc1 | 0.273 µM
Clc1nc2ccccn2c1C=Cc1ccc2ccccc2n1 | 0.267 µM
Cc1cc(Nc2ccccc2)nc(Nc2ccccc2)n1 | 0.799 µM
CC(CCCCC(=O)Nc1ccc(CC(C)NCCc2cccc(Cl)c2)cc1)NCCc1cccc(Cl)c1 (stereo not drawn) | 1.01 µM
Cc1cc(C2CCN(CCCCNC(=O)c3ccc(-c4ccc(C(F)(F)F)cc4)cc3)CC2)c(C)cc1OCC(N)=O | 0.805 µM
Cc1ccc(NC(=O)c2ccc3nccnc3c2)cc1OC1CCN(Cc2ccc(F)cc2)CC1 | 1.01 µM
CCCCCCCN1C2CCC1CC(CCOc1ccnc3ccc(OC)cc13)C2 (stereo not drawn) | 0.389 µM
CCCCOc1c(CCNCCCCNCCc2cc(F)c3ccccc3c2OCCCC)cc(F)c2ccccc12 | 0.629 µM
COc1ccc(CN2CCC(CNCCc3ccccc3Cl)CC2)cc1 | 1.11 µM
COc1ccc(CCN2CCC(NCc3cccc(N(C)C)c3)CC2)cc1 | 1.32 µM
CCOC(=O)N[C@@H]1CN[C@@H](C#Cc2cc3c(Nc4ccc(OCc5cccc(F)c5)c(Cl)c4)ncnc3s2)C1 | 1.08 µM
Clc1ccc2c(NCc3ccc4c(c3)OCO4)ccnc2c1 | 0.266 µM
CO/C(=C\C=C\c1cc2cc(Cl)c(Cl)cc2[nH]1)C(=O)NCCCN1CCN(c2cccc(OC)c2)CC1 | 0.845 µM
CS(=O)(=O)c1ccc2c(c1)CCN(CCC1CCC(NC(=O)C(=Cc3ccc(Cl)cc3Cl)c3ccc(-c4ccccc4)cc3)CC1)CC2 (stereo not drawn) | 1.17 µM
CCCCN1CCN(c2cc(NS(=O)(=O)c3ccc(C(=O)Nc4ccc(C(F)(F)F)cc4)cc3)ccc2OC)CC1 | 0.664 µM
CCCCOP(=O)(COc1ccc(CCN(CC(O)COc2cccc3[nH]c4ccccc4c23)CC(O)COc2cccc3[nH]c4ccccc4c23)cc1)C1CCCCC1 (stereo not drawn) | 0.939 µM
CCCNCc1ccc(-c2ccc(CN(Cc3cnc(C)cn3)C(=O)/C=C/c3ccccc3C)cc2)nc1 | 0.919 µM
CCN(CCN(C)C)Cc1ccc(-c2ccc(NS(=O)(=O)c3cccc(Cl)c3)cc2)cc1 | 0.523 µM
